Assay results from PMC4013825 (Journal of biomolecular screening, 2014).
pKd: −log10 of the molar value.

Experiments:
[1] = molecular target: T1, SERCA2a (sarco/endoplasmic reticulum calcium ATPase) (Canis lupus, UniProt O46674); assay: live-cell intramolecular FRET lifetime dose-response; assay type: cell-based
[2] = molecular target: T1, SERCA2a (sarco/endoplasmic reticulum calcium ATPase); assay: as above; assay type: cell-based; remark: listed apart in the source

T1 sequence (O46674 whole entry): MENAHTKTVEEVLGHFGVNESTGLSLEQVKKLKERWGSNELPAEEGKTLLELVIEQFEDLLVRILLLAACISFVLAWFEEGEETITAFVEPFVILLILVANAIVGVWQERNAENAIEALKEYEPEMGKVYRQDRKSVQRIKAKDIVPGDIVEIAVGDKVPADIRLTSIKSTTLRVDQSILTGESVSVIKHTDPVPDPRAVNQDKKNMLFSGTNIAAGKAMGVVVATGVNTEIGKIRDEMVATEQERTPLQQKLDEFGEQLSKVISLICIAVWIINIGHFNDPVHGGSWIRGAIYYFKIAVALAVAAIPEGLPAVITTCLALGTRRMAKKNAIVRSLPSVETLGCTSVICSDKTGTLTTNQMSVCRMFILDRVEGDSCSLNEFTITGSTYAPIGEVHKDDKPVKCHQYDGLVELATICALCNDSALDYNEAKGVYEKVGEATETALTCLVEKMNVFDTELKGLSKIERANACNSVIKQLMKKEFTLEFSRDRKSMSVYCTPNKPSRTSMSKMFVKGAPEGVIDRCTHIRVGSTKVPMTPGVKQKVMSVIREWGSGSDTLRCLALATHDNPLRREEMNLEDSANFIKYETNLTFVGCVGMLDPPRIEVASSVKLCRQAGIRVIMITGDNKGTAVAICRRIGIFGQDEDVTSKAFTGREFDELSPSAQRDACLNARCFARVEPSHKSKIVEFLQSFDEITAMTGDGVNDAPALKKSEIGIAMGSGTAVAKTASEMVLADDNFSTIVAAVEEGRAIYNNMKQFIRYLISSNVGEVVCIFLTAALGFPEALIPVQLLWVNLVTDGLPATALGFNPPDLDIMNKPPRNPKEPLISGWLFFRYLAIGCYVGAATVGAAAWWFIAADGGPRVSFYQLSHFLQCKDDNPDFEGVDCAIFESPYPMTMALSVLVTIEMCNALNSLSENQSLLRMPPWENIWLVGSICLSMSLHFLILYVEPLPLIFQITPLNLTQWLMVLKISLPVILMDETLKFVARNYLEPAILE

Row | SMILES | live-cell intramolecular FRET lifetime dose-response; ATPase inhibition in pig c [1] | pKd [2]
1 | C/C=C(/C)C(=O)O[C@H]1C(C)=C2[C@H]([C@@H]1OC(=O)CCCCCCC)[C@@](C)(OC(C)=O)C[C@H](OC(=O)CCC)[C@@]1(O)[C@H]2OC(=O)[C@@]1(C)O [TG, thapsigargin] | 7.5 nM | –
2 | CC(=O)C1=C(O)[C@@H]2[C@H]3c4c[nH]c5cccc(c45)C[C@H]3C(C)(C)N2C1=O [CPA, cyclopiazonic acid] | – | ~7.40
